From PubChem BioAssay AID248 (DTP/NCI, 2004)
Toxic doses and inconclusive results are not listed.

Tested on: L1210 leukemia ip in BDF1 mice, survival T/C
Experiment: NCI In Vivo Anticancer Drug Screen. Data for tumor model L1210 Leukemia (intraperitoneal) in B6D2F1 (BDF1) mice
Conditions: endpoint: mean survival time, higher = longer survival
How it was run: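 In this screen, tumor-bearing mice given compound are compared to those given vehicle, and their survival values are reported as a treated-to-control quotient.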

[1] = dose: 100.0 mg/kg/injection, schedule: Q01DX009 (ip), vehicle: saline with Tween-80
[2] = dose: 200.0 mg/kg/injection, schedule: Q01DX009 (ip), vehicle: saline with Tween-80
[3] = dose: 400.0 mg/kg/injection, schedule: Q01DX009 (ip), vehicle: saline with Tween-80
[4] = dose: 100.0 mg/kg/injection, schedule: Q01DX001 (ip), vehicle: other
[5] = dose: 200.0 mg/kg/injection, schedule: Q01DX001 (ip), vehicle: other
[6] = dose: 400.0 mg/kg/injection, schedule: Q01DX001 (ip), vehicle: other
[7] = dose: 100.0 mg/kg/injection, schedule: Q01DX001 (ip), vehicle: saline
[8] = dose: 200.0 mg/kg/injection, schedule: Q01DX001 (ip), vehicle: saline
[9] = dose: 400.0 mg/kg/injection, schedule: Q01DX001 (ip), vehicle: saline
[10] = dose: 100.0 mg/kg/injection, schedule: Q01DX009 (ip), vehicle: saline
[11] = dose: 100.0 mg/kg/injection, schedule: Q04DX003 (ip), vehicle: saline with Tween-80
[12] = dose: 200.0 mg/kg/injection, schedule: Q04DX003 (ip), vehicle: saline with Tween-80
[13] = dose: 100.0 mg/kg/injection, schedule: Q01DX009 (ip), vehicle: Klucel (hydroxypropylcellulose) (HPC)
[14] = dose: 200.0 mg/kg/injection, schedule: Q01DX009 (ip), vehicle: Klucel (hydroxypropylcellulose) (HPC)
[15] = dose: 200.0 mg/kg/injection, schedule: Q04DX003 (ip), vehicle: Klucel (hydroxypropylcellulose) (HPC)
[16] = dose: 400.0 mg/kg/injection, schedule: Q01DX009 (ip), vehicle: Klucel (hydroxypropylcellulose) (HPC)
[17] = dose: 100.0 mg/kg/injection, schedule: Q01DX001 (ip), vehicle: Klucel (hydroxypropylcellulose) (HPC)
[18] = dose: 200.0 mg/kg/injection, schedule: Q01DX001 (ip), vehicle: Klucel (hydroxypropylcellulose) (HPC)
[19] = dose: 400.0 mg/kg/injection, schedule: Q01DX001 (ip), vehicle: Klucel (hydroxypropylcellulose) (HPC)

SMILES: CCOc1ccc(P2(=S)SP(=S)(c3ccc(OCC)cc3)S2)cc1 (configuration not stated)
- T/C [1]: 97 % of control
- T/C (dose: 100.0 mg/kg/injection, schedule: Q04DX002 (ip), vehicle: Klucel (hydroxypropylcellulose) (HPC)): 94 % of control
- T/C [2]: 91 % of control
- T/C (dose: 200.0 mg/kg/injection, schedule: Q04DX002 (ip), vehicle: Klucel (hydroxypropylcellulose) (HPC)): 88 % of control
- T/C [3]: 102 % of control
- T/C (dose: 400.0 mg/kg/injection, schedule: Q04DX002 (ip), vehicle: Klucel (hydroxypropylcellulose) (HPC)): 102 % of control

SMILES: CC(=O)OCC1OC(n2cnc3c(C)nc(F)nc32)C(OC(C)=O)C1OC(C)=O (configuration not stated)
- T/C (dose: 50.0 mg/kg/injection, schedule: Q01DX001 (ip), vehicle: other): 105 % of control
- T/C [4]: 113 % of control
- T/C [5]: 103 % of control
- T/C [6]: 108 % of control

SMILES: CN(C=O)C(=S)[S-].CN(C=O)C(=S)[S-].CN(C=O)C(=S)[S-].O=C(Nc1ccc(S(=O)(=O)Nc2ccc(N=Nc3ccc4nc([S-])sc4c3)cc2)cc1)C(N1CC1)(N1CC1)N1CC1.[Pd]
- T/C (dose: 6.25 mg/kg/injection, schedule: Q01DX009 (ip), vehicle: saline): 109 % of control
- T/C (dose: 6.25 mg/kg/injection, schedule: Q04DX003 (ip), vehicle: saline): 108 % of control
- T/C (dose: 12.5 mg/kg/injection, schedule: Q01DX009 (ip), vehicle: saline): 101 % of control
- T/C (dose: 12.5 mg/kg/injection, schedule: Q04DX003 (ip), vehicle: saline): 106 % of control
- T/C (dose: 25.0 mg/kg/injection, schedule: Q01DX009 (ip), vehicle: saline): 98 % of control
- T/C (dose: 25.0 mg/kg/injection, schedule: Q04DX003 (ip), vehicle: saline): 103 % of control

SMILES: CS(=O)(=O)N(CC(=O)O)Cc1cccc(Br)c1
- T/C (dose: 50.0 mg/kg/injection, schedule: Q01DX005 (ip), vehicle: other): 107 % of control
- T/C (dose: 100.0 mg/kg/injection, schedule: Q01DX005 (ip), vehicle: other): 120 % of control
- T/C (dose: 200.0 mg/kg/injection, schedule: Q01DX005 (ip), vehicle: other): 100 % of control

SMILES: COC(=O)C1=NN(c2ccccc2)CC1
- T/C [7]: 98 % of control
- T/C (dose: 100.0 mg/kg/injection, schedule: Q04DX003 (ip), vehicle: other): 88 % of control
- T/C [8]: 106 % of control
- T/C (dose: 200.0 mg/kg/injection, schedule: Q04DX003 (ip), vehicle: other): 94 % of control
- T/C [9]: 90 % of control
- T/C (dose: 400.0 mg/kg/injection, schedule: Q04DX003 (ip), vehicle: other): 94 % of control

SMILES: CCC(=O)OC(OC(=O)CC)c1cccc2ccccc12
- T/C (dose: 222.0 mg/kg/injection, schedule: Q01DX Z (ip), vehicle: saline): 90 % of control
- T/C (dose: 333.0 mg/kg/injection, schedule: Q01DX Z (ip), vehicle: saline): 86 % of control
- T/C (dose: 500.0 mg/kg/injection, schedule: Q01DX Z (ip), vehicle: saline): 95 % of control

SMILES: CC(=O)Nc1cc(NC(C)=O)cc([N+](=O)[O-])c1
- T/C (dose: 50.0 mg/kg/injection, schedule: Q01DX009 (ip), vehicle: saline): 96 % of control
- T/C [10]: 105 % of control
- T/C (dose: 100.0 mg/kg/injection, schedule: Q04DX003 (ip), vehicle: saline): 94 % of control
- T/C (dose: 200.0 mg/kg/injection, schedule: Q04DX003 (ip), vehicle: saline): 102 % of control
- T/C (dose: 400.0 mg/kg/injection, schedule: Q04DX003 (ip), vehicle: saline): 100 % of control

SMILES: C1=Cc2ccccc2/C1=C/c1ccccc1
- T/C [4]: 97 % of control
- T/C [5]: 95 % of control
- T/C [6]: 92 % of control

SMILES: COc1ccccc1C(c1ccccc1OC)N(C)C(C)(C)CO
- T/C (dose: 6.25 mg/kg/injection, schedule: Q01DX009 (ip), vehicle: saline sonified): 102 % of control
- T/C (dose: 12.5 mg/kg/injection, schedule: Q01DX009 (ip), vehicle: saline sonified): 101 % of control
- T/C (dose: 25.0 mg/kg/injection, schedule: Q01DX009 (ip), vehicle: saline sonified): 106 % of control

SMILES: Nc1nc[nH]c(=O)c1NC=O
- T/C [10]: 94 % of control
- T/C [11]: 97 % of control
- T/C (dose: 200.0 mg/kg/injection, schedule: Q01DX009 (ip), vehicle: saline): 100 % of control
- T/C [12]: 98 % of control
- T/C (dose: 400.0 mg/kg/injection, schedule: Q01DX009 (ip), vehicle: saline): 104 % of control
- T/C (dose: 400.0 mg/kg/injection, schedule: Q04DX003 (ip), vehicle: saline with Tween-80): 101 % of control

SMILES: Cc1ccccc1CO
- T/C (dose: 50.0 mg/kg/injection, schedule: Q01DX001 (ip), vehicle: saline): 97 % of control
- T/C [7]: 97 % of control
- T/C [8]: 97 % of control
- T/C [9]: 100 % of control

SMILES: O=C1c2ccccc2C(=O)c2c1ccc(C1C(=O)c3ccccc3C1=O)c2-c1c(C2C(=O)c3ccccc3C2=O)ccc2c1C(=O)c1ccccc1C2=O
- T/C [7]: 95 % of control
- T/C [8]: 95 % of control
- T/C [9]: 97 % of control

SMILES: CCN(CC)c1ccc(C(=S)c2ccc(N(CC)CC)cc2)cc1
- T/C [4]: 91 % of control
- T/C [5]: 91 % of control
- T/C [6]: 95 % of control

SMILES: CNC1C(O)C(OC2C(N)CC(N)C(OC3OC(CN)C(O)C(O)C3O)C2O)OCC1(C)O (configuration not stated)
- T/C (dose: 100.0 mg/kg/injection, schedule: Q04DX002 (ip), vehicle: saline): 116 % of control
- T/C (dose: 200.0 mg/kg/injection, schedule: Q04DX002 (ip), vehicle: saline): 100 % of control
- T/C (dose: 400.0 mg/kg/injection, schedule: Q04DX002 (ip), vehicle: saline): 95 % of control

SMILES: c1ccc2c(CCc3ccncc3)cccc2c1
- T/C [13]: 103 % of control
- T/C (dose: 100.0 mg/kg/injection, schedule: Q04DX003 (ip), vehicle: Klucel (hydroxypropylcellulose) (HPC)): 101 % of control
- T/C [14]: 100 % of control
- T/C [15]: 103 % of control
- T/C [16]: 97 % of control
- T/C (dose: 400.0 mg/kg/injection, schedule: Q04DX003 (ip), vehicle: Klucel (hydroxypropylcellulose) (HPC)): 100 % of control

SMILES: N#C/C(N)=C(\C#N)N=Cc1ccc(-c2ccccc2)cc1
- T/C (dose: 100.0 mg/kg/injection, schedule: Q01DX001 (ip), vehicle: saline with Tween-80): 97 % of control
- T/C (dose: 200.0 mg/kg/injection, schedule: Q01DX001 (ip), vehicle: saline with Tween-80): 92 % of control
- T/C (dose: 400.0 mg/kg/injection, schedule: Q01DX001 (ip), vehicle: saline with Tween-80): 93 % of control

SMILES: O=c1[nH]c2sccc2c(=O)n1OS(=O)(=O)c1ccccc1
- T/C [13]: 105 % of control
- T/C [14]: 122 % of control
- T/C [16]: 93 % of control

SMILES: O=S(=O)(F)c1cccc(C[P+](c2ccccc2)(c2ccccc2)c2ccccc2)c1
- T/C (dose: 25.0 mg/kg/injection, schedule: Q01DX009 (ip), vehicle: saline with Tween-80): 95 % of control
- T/C (dose: 50.0 mg/kg/injection, schedule: Q01DX009 (ip), vehicle: saline with Tween-80): 101 % of control
- T/C (dose: 100.0 mg/kg/injection, schedule: Q04DX003 (ip), vehicle: acetone): 94 % of control

SMILES: O=NN(CCBr)C(=O)Nc1ccccc1
- T/C (dose: 111.0 mg/kg/injection, schedule: Q01DX001 (ip), vehicle: carboxymethylcellulose (CMC)): 153 % of control
- T/C (dose: 222.0 mg/kg/injection, schedule: Q01DX001 (ip), vehicle: carboxymethylcellulose (CMC)): 161 % of control
- T/C (dose: 444.0 mg/kg/injection, schedule: Q01DX001 (ip), vehicle: carboxymethylcellulose (CMC)): 124 % of control

SMILES: Cc1cc(C)c([N+](=O)[O-])c(N)n1
- T/C [17]: 102 % of control
- T/C [13]: 102 % of control
- T/C [18]: 105 % of control
- T/C [14]: 101 % of control
- T/C [19]: 100 % of control
- T/C [16]: 103 % of control

SMILES: COC1OC2COC(c3ccccc3)OC2C(OS(=O)(=O)c2ccc(C)cc2)C1OS(=O)(=O)c1ccc(C)cc1 (configuration not stated)
- T/C [1]: 93 % of control
- T/C [11]: 88 % of control
- T/C [2]: 90 % of control
- T/C [12]: 91 % of control
- T/C [3]: 95 % of control

SMILES: O=C(CC(=O)c1ccccc1)Nc1ccc([N+](=O)[O-])cn1
- T/C (dose: 50.0 mg/kg/injection, schedule: Q04DX003 (ip), vehicle: Klucel (hydroxypropylcellulose) (HPC)): 91 % of control
- T/C [17]: 103 % of control
- T/C [18]: 105 % of control
- T/C [15]: 93 % of control
- T/C [19]: 98 % of control
